Results: the supplement of paper PMC4862054

Key:
Conditions in all cases: incubation time: 72 h
[1] = test system: CAL-51; assay: normalised response (% of control), CellTox Green; higher = less cell death (100 = DMSO, 0 = benzethonium chloride kill control)
How it was run: (§1)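 Every value is a normalised signal taken at one concentration of a dilution series. Compound was placed in 384-well plates at 5 concentrations in 10-fold steps over a compound-specific 10,000-fold range, and 20 µl of breast cancer cell suspension was seeded onto it. After 72 h, CellTox Green fluorescence (485/520 nm) was measured first and CellTiter-Glo luminescence second, following 10 min at room temperature. Each plate was scaled to 0.1 % DMSO (100) and a positive kill control (0).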

[2] = test system: DU-4475; assay: as above
How it was run: as §1

[3] = test system: CAL-85-1; assay: as above
How it was run: as §1

[4] = test system: BT-549; assay: as above
How it was run: as §1

[5] = test system: MDA-MB-453; assay: as above
How it was run: as §1

[6] = test system: HCC1143; assay: as above
How it was run: as §1

[7] = test system: HCC1937; assay: as above
How it was run: as §1

[8] = test system: MCF-10A; assay: as above
How it was run: as §1

[9] = test system: HDQ-P1; assay: as above
How it was run: as §1

[10] = test system: CAL-148; assay: as above
How it was run: as §1

[11] = test system: MDA-MB-468; assay: as above
How it was run: as §1

[12] = test system: HCC1599; assay: as above
How it was run: as §1

[13] = test system: MDA-MB-436; assay: as above
How it was run: as §1

[14] = test system: MDA-MB-231; assay: as above
How it was run: as §1

[15] = test system: Hs578T; assay: as above
How it was run: as §1

[16] = test system: CAL-120; assay: as above
How it was run: as §1

[17] = test system: MFM-223; assay: as above
How it was run: as §1

[18] = test system: BT-474; assay: as above
How it was run: as §1

[19] = test system: CAL-51; assay: normalised response (% of control), CellTiter-Glo; higher = more viable cells (100 = DMSO, 0 = benzethonium chloride kill control)
Protocol: (§2)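 DSRT, 72 h incubation, CellTox Green / CellTiter-Glo readout. Signal is normalised to DMSO and benzethonium chloride controls. Value is the normalised response at the highest dose.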

[20] = test system: DU-4475; assay: as above
Protocol: as §2

[21] = test system: CAL-85-1; assay: as above
Protocol: as §2

[22] = test system: BT-549; assay: as above
Protocol: as §2

[23] = test system: SK-BR-3; assay: as above
Protocol: as §2

[24] = test system: MDA-MB-453; assay: as above
Protocol: as §2

[25] = test system: HCC1143; assay: as above
Protocol: as §2

[26] = test system: HCC1937; assay: as above
Protocol: as §2

[27] = test system: MCF-10A; assay: as above
Protocol: as §2

[28] = test system: HDQ-P1; assay: as above
Protocol: as §2

[29] = test system: CAL-148; assay: as above
Protocol: as §2

[30] = test system: MDA-MB-468; assay: as above
Protocol: as §2

[31] = test system: HCC1599; assay: as above
Protocol: as §2

[32] = test system: MDA-MB-436; assay: as above
Protocol: as §2

[33] = test system: MDA-MB-231; assay: as above
Protocol: as §2

[34] = test system: Hs578T; assay: as above
Protocol: as §2

[35] = test system: CAL-120; assay: as above
Protocol: as §2

[36] = test system: MFM-223; assay: as above
Protocol: as §2

[37] = test system: BT-474; assay: as above
Protocol: as §2

SMILES	normalised response [1]	normalised response [2]	normalised response [3]	normalised response [4]	normalised response [5]	normalised response [6]	normalised response [7]	normalised response [8]	normalised response [9]	normalised response [10]	normalised response [11]	normalised response [12]	normalised response [13]	normalised response [14]	normalised response [15]	normalised response [16]	normalised response [17]	normalised response [18]	normalised response [19]	normalised response [20]	normalised response [21]	normalised response [22]	normalised response [23]	normalised response [24]	normalised response [25]	normalised response [26]	normalised response [27]	normalised response [28]	normalised response [29]	normalised response [30]	normalised response [31]	normalised response [32]	normalised response [33]	normalised response [34]	normalised response [35]	normalised response [36]	normalised response [37]
c1cc(CN2CCCNCCNCCCNCC2)ccc1CN1CCCNCCNCCCNCC1 [Plerixafor] (10000 nM)	85.7%	92.3%	117%	52.3%	80.5%	101%	104%	94.2%	104%	98.5%	69.7%	98.2%	95.5%	96%	102%	95.2%	96.9%	99.7%	124%	88.6%	96%	107%	79.1%	78.3%	102%	97.3%	82.6%	98.2%	91.8%	106%	99.8%	97.9%	94.2%	92.3%	108%	87.2%	90.9%
O=S(=O)(c1cccc2cnccc12)N1CCCNCC1 [Fasudil] (50000 nM)	116%	95.4%	80.6%	97.4%	101%	99.4%	79.6%	87.7%	–	97.8%	90.6%	80.3%	94.4%	50.6%	118%	93.2%	102%	99.3%	117%	86.3%	111%	78.9%	57%	79.6%	83.7%	96.5%	78.3%	89%	96.3%	93.6%	96.6%	90.2%	70.1%	86.7%	67.1%	88.2%	67.5%
Cn1cc(CNCC2CCN(c3ncc(C(=O)NO)cn3)CC2)c2ccccc21 [Quisinostat] (1000 nM)	-21.8%	77.2%	-55.4%	64.2%	87.9%	57.9%	82%	56.8%	52.1%	-22.9%	31.9%	71.7%	91.8%	-24.8%	9.9%	-15.2%	66.2%	35.7%	7.13%	15.9%	4.67%	10.2%	0.06%	2.11%	13.9%	22.7%	10.7%	25.7%	0.34%	10.2%	6.82%	34.8%	6.24%	5.64%	10.8%	32.8%	6.87%
CC/C(=C(\c1ccc(O)cc1)c1ccc(OCCN(C)C)cc1)c1ccccc1 [4-hydroxytamoxifen] (10000 nM)	103%	92%	34%	68%	46.9%	68%	-22.6%	75.6%	81.4%	73.9%	-1140%	82.9%	74.7%	7.14%	–	44.5%	91.1%	14.6%	60.5%	84%	44.9%	62.7%	49.8%	34.4%	88.6%	25.4%	81.4%	73.1%	85%	13.8%	66.5%	35%	41.1%	80.8%	76.5%	45.5%	63%
CCCCC/C=C/C=C1/C(=O)C=C[C@@H]1C/C=C\CCCC(=O)O [15D-PGJ2] (800 nM)	104%	94.9%	94.3%	105%	72.9%	110%	110%	95.6%	82.9%	102%	119%	108%	107%	104%	124%	109%	106%	106%	71.8%	100%	101%	96.5%	106%	106%	107%	102%	108%	97.1%	108%	88.7%	97%	97.4%	97.8%	102%	101%	102%	95.4%
CC[C@@]1(O)C(=O)OCc2c1cc1n(c2=O)Cc2cc3c(CN(C)C)c(O)ccc3nc2-1 [Topotecan] (10000 nM)	-18.1%	60.8%	42.3%	56.9%	85.1%	87.9%	18.6%	55.5%	69.8%	7.1%	29.5%	71.7%	29.1%	46.1%	102%	49.3%	43.5%	88.4%	15.2%	0.66%	21.6%	22.1%	19.6%	33.2%	26.9%	15.3%	39%	54.5%	0.39%	4.47%	9.36%	21%	43.1%	55.2%	37%	61.7%	47.8%
CS(=O)(=O)N1CCN(Cc2cc3nc(-c4cccc5[nH]ncc45)nc(N4CCOCC4)c3s2)CC1 [Pictilisib] (10000 nM)	48.2%	–	50.2%	102%	92%	120%	91.4%	79.4%	85.4%	47.1%	155%	103%	116%	118%	98.8%	105%	56.4%	47.1%	8.84%	81.4%	27.8%	25.6%	22.2%	13.4%	26%	32.3%	18.4%	19.9%	15.6%	26.4%	64.9%	43%	48.8%	31.3%	34.3%	28.2%	50.6%
Cc1cccc(-c2nn3c(c2-c2ccnc4ccc(C(N)=O)cc24)CCC3)n1 [Galunisertib] (1000 nM)	98.5%	108%	68.4%	109%	98.8%	127%	116%	103%	108%	105%	121%	112%	–	127%	112%	99.3%	102%	103%	91.8%	108%	110%	95.7%	116%	106%	105%	101%	90.8%	105%	118%	101%	108%	112%	98.3%	106%	105%	108%	99.6%
CC(C)N(CCCNC(=O)Nc1ccc(C(C)(C)C)cc1)C[C@H]1O[C@@H](n2cc(Br)c3c(N)ncnc32)[C@H](O)[C@@H]1O [SGC0946] (10000 nM)	101%	98.7%	114%	95.8%	91.9%	100%	94%	79.5%	99.1%	93.7%	115%	81.6%	75%	71.9%	–	97.4%	89.3%	85.2%	94.1%	94.3%	83.1%	92.3%	73.5%	69.3%	91.4%	84.2%	101%	87.2%	82.6%	70.7%	78%	93.8%	74.7%	101%	102%	81.2%	88.1%
